Experimental data from ChEMBL document CHEMBL1140509, “Rynaxypyr: a new insecticidal anthranilic diamide that acts as a potent and selective ryanodine receptor activator” (Bioorg Med Chem Lett, 2007).
pEC50: −log10 of the molar value. Values after ≈ are worked out from the molar mass of the structure shown. Values joined by “and” are separate entries in the source; they are usually repeats but may differ in a detail not shown here. Equal entries are not always repeated. Active and inactive are the calls of the source. The calls are words filed in the database; no cut-off is given here.

Key:
[1] = molecular target: T1, Ryanodine receptor 2 (Homo sapiens, UniProt Q92736); experiment: Activation of ryanodine receptor in human IMR32 cells assessed as induction of calcium mobilization; type: cell-based
[2] = system: Spodoptera frugiperda; experiment: Insecticidal activity against Spodoptera frugiperda; type: functional
[3] = system: Plutella xylostella; experiment: Insecticidal activity against Plutella xylostella; type: functional
[4] = system: Heliothis virescens; experiment: Insecticidal activity against Heliothis virescens; type: functional
[5] = Activation of Heliothis virescens recombinant ryanodine receptor expressed in Sf9 cells assessed as induction of calcium mobilization
[6] = molecular target: Ryanodine receptor (Drosophila melanogaster, UniProt Q24498); experiment: Activation of Drosophila melanogaster ryanodine receptor in Sf9 cells assessed as induction of calcium mobilization; type: cell-based
[7] = Activation of ryanodine receptor in mouse C2C12 cells assessed as induction of calcium mobilization; type: cell-based
[8] = Activation of ryanodine receptor in rat PC12 cells assessed as induction of calcium mobilization; type: cell-based; settings: PC-12
[9] = system: PC-12; experiment: Activation of ryanodine receptor in rat PC12 cells assessed as induction of calcium mobilization at 100 uM; type: cell-based
[10] = molecular target: T1, Ryanodine receptor 2; experiment: Activation of ryanodine receptor in human IMR32 cells assessed as induction of calcium mobilization at 100 uM; type: cell-based; settings: IMR-32
[11] = Toxicity in po dosed rat; type: organism-based; settings: in vivo
[12] = system: Rattus norvegicus; experiment: Toxicity in rat above 1000 mg/kg/day; type: organism-based; settings: in vivo
[13] = system: Oryctolagus cuniculus; experiment: Toxicity in rabbit above 1000 mg/kg/day; type: organism-based; settings: in vivo

T1 sequence (Q92736 whole entry): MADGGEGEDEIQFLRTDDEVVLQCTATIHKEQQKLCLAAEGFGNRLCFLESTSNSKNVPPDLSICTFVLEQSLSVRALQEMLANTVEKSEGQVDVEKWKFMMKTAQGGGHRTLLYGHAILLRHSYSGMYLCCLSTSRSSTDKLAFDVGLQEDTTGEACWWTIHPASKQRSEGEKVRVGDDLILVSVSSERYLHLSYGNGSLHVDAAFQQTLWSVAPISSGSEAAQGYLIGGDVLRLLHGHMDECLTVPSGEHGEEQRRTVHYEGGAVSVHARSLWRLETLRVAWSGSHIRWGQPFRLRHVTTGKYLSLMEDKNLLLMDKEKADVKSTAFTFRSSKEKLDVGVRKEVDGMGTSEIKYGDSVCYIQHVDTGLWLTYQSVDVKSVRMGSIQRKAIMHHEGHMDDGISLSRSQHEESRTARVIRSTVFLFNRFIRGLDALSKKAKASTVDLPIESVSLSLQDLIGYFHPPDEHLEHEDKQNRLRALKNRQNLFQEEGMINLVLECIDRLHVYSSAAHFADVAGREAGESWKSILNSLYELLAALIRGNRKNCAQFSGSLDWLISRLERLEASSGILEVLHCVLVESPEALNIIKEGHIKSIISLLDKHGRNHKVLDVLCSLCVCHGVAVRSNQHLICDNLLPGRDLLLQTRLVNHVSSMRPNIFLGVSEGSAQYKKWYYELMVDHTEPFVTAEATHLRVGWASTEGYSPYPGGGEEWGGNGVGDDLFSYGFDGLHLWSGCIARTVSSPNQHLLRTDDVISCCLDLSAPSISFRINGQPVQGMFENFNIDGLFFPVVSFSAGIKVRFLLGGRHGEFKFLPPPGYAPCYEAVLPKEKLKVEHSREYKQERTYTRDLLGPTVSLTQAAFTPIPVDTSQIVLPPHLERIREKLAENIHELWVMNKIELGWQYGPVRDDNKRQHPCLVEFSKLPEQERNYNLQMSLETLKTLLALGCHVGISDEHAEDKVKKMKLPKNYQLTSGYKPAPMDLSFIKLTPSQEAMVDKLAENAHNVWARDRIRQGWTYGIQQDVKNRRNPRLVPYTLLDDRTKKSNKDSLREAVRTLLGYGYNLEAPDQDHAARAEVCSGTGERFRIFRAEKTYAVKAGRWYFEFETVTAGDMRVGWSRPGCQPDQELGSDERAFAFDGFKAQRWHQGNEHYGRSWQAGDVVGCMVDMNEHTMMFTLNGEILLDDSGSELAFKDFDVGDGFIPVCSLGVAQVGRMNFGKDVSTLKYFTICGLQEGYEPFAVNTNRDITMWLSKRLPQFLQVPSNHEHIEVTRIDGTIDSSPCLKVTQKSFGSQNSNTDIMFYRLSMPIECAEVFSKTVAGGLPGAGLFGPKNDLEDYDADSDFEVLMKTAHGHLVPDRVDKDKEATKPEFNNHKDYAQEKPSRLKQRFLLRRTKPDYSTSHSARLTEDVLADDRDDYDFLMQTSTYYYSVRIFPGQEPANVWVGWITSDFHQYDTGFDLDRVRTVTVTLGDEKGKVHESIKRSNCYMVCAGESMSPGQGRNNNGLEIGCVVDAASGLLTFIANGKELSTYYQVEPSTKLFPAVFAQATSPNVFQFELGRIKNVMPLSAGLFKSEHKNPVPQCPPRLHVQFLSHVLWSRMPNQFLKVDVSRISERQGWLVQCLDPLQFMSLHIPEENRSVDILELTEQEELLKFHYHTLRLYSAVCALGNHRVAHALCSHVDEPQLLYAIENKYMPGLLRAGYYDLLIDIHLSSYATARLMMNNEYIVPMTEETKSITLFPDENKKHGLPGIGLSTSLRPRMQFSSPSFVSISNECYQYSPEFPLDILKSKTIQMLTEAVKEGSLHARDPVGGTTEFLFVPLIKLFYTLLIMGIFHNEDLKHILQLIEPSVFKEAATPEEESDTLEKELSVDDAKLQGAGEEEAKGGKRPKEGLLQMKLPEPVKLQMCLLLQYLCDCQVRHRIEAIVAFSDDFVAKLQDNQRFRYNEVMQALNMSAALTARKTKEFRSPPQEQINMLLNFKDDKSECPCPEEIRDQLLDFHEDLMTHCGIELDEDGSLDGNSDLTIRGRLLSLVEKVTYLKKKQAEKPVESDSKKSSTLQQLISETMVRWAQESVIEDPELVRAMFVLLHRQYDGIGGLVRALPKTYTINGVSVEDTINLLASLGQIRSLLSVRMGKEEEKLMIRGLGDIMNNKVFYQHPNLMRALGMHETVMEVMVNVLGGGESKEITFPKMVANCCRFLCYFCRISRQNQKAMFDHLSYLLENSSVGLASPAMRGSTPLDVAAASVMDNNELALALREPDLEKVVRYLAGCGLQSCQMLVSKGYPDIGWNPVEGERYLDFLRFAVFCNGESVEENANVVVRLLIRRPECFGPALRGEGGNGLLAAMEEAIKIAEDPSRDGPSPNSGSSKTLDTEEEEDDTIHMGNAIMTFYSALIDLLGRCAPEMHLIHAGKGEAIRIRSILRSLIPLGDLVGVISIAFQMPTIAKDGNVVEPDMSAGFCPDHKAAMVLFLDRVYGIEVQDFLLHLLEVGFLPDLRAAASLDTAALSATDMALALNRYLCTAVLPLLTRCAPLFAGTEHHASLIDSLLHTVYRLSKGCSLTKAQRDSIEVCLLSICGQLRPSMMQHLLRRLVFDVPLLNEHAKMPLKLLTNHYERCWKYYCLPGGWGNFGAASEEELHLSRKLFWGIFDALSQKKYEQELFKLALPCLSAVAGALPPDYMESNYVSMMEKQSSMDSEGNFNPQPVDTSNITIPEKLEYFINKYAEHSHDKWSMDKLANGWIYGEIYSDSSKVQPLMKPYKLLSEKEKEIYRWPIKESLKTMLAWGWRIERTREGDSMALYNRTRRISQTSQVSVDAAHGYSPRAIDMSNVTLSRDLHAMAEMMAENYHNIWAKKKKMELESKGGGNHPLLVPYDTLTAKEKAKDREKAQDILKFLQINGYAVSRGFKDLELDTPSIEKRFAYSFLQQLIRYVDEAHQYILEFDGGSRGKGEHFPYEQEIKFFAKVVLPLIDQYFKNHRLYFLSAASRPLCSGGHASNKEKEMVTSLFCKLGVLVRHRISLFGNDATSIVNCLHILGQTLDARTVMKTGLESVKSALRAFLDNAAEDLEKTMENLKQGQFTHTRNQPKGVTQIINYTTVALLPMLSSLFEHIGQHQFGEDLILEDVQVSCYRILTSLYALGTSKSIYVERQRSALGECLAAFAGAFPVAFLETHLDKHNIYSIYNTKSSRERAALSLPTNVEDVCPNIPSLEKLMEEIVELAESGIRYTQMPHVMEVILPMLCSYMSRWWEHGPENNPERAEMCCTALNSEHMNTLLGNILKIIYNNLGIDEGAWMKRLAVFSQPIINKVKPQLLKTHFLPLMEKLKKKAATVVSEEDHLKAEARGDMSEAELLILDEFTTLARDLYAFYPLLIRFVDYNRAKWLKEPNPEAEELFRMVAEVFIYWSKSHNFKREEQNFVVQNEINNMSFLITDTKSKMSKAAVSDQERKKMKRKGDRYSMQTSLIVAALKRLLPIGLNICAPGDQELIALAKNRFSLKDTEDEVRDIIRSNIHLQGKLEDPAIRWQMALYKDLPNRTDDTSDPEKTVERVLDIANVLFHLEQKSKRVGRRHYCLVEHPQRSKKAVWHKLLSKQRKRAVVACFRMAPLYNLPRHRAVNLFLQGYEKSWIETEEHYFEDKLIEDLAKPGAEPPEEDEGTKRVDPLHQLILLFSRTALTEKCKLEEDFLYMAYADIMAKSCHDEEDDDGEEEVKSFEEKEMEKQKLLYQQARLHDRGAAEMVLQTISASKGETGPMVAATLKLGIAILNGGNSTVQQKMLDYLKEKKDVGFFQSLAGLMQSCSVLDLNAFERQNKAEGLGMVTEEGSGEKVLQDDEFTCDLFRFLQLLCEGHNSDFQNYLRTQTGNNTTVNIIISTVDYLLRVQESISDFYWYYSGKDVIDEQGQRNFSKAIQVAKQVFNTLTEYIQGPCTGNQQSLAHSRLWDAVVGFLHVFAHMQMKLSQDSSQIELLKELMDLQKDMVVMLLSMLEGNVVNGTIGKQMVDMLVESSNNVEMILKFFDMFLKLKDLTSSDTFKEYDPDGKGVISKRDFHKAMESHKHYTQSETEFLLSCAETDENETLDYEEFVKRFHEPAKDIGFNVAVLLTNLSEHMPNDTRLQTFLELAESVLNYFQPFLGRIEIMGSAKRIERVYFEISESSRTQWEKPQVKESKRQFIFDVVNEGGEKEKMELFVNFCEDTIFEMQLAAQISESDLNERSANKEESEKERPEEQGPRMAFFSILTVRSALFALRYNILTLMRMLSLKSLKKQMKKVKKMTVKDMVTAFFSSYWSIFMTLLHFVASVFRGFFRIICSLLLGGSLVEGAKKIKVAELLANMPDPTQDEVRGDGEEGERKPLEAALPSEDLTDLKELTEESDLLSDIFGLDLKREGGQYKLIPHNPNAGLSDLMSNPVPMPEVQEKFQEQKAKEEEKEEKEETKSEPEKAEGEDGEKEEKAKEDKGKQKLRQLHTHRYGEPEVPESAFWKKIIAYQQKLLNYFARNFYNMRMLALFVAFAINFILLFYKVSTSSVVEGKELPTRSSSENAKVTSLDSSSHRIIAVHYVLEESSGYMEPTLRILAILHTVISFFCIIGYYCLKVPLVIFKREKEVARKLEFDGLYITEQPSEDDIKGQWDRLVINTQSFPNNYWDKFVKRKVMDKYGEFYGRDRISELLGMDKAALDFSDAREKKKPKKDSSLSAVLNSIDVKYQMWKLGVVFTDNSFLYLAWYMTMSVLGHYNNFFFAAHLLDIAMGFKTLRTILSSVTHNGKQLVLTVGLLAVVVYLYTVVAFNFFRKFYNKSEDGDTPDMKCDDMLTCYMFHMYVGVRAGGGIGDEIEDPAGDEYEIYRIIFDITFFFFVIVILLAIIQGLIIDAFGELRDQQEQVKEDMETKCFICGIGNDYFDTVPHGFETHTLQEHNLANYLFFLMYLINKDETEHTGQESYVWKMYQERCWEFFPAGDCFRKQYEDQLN

SMILES: Cn1c(=O)c2c(ncn2C)n(C)c1=O
- Activity ([1]; IMR-32): Dose-dependent effect

SMILES: Cc1cc(Cl)cc(C(=O)NC(C)C)c1NC(=O)c1cc(C(F)(F)F)nn1-c1ncccc1Cl
- LC50 [2]: 0.03 µg/mL (≈ 0.06 µM)
- LC50 [3]: 0.01 µg/mL (≈ 0.02 µM)
- LC50 [4]: 0.02 µg/mL (≈ 0.04 µM)
- pEC50 [5]: 5.74

SMILES: Cc1cc(Cl)cc(C(=O)NC(C)C)c1NC(=O)c1cc(OC(F)F)nn1-c1ncccc1Cl
- LC50 [2]: 0.14 µg/mL (≈ 0.281 µM)
- LC50 [3]: 0.1 µg/mL (≈ 0.201 µM)
- LC50 [4]: 0.12 µg/mL (≈ 0.241 µM)
- pEC50 [5]: 6.29

SMILES: CNC(=O)c1cc(Cl)cc(C)c1NC(=O)c1cc(OCC(F)(F)F)nn1-c1ncccc1Cl
- LC50 [2]: 0.11 µg/mL (≈ 0.219 µM)
- LC50 [3]: 0.04 µg/mL (≈ 0.0796 µM)
- LC50 [4]: 0.24 µg/mL (≈ 0.478 µM)
- pEC50 [5]: 6.62

SMILES: Cc1cc(Cl)cc(C(=O)NC(C)C)c1NC(=O)c1cc(OCC(F)(F)F)nn1-c1ncccc1Cl
- LC50 [2]: 0.03 µg/mL (≈ 0.0566 µM)
- LC50 [3]: 0.01 µg/mL (≈ 0.0189 µM)
- LC50 [4]: 0.09 µg/mL (≈ 0.17 µM)
- pEC50 [5]: 5.56

SMILES: CNC(=O)c1cc(I)cc(C)c1NC(=O)c1cc(C(F)(F)F)nn1-c1ncccc1Cl
- LC50 [2]: 0.26 µg/mL (≈ 0.461 µM)
- LC50 [3]: 0.1 µg/mL (≈ 0.177 µM)
- LC50 [4]: 0.21 µg/mL (≈ 0.373 µM)
- pEC50 [5]: 6.69

SMILES: COc1cc(C(=O)Nc2c(C)cc(Cl)cc2C(=O)NC(C)C)n(-c2ncccc2Cl)n1
- LC50 [2]: 0.3 µg/mL (≈ 0.649 µM)
- LC50 [3]: 0.18 µg/mL (≈ 0.389 µM)
- LC50 [4]: 1.14 µg/mL (≈ 2.47 µM)
- pEC50 [5]: 6.41

SMILES: CNC(=O)c1cc(C(F)(F)F)cc(C)c1NC(=O)c1cc(C(F)(F)F)nn1-c1ncccc1Cl
- LC50 [2]: 0.53 µg/mL (≈ 1.05 µM)
- LC50 [3]: 0.09 µg/mL (≈ 0.178 µM)
- LC50 [4]: 0.66 µg/mL (≈ 1.3 µM)

SMILES: CNC(=O)c1cc(Cl)cc(C)c1NC(=O)c1cc(C(F)(F)F)nn1-c1ncccc1Cl
- LC50 [2]: 0.02 µg/mL (≈ 0.0424 µM)
- LC50 [3]: 0.01 µg/mL (≈ 0.0212 µM)
- LC50 [4]: 0.05 µg/mL (≈ 0.106 µM)
- pEC50 [5]: 7.14

SMILES: CNC(=O)c1cc(Cl)cc(C)c1NC(=O)c1cc(Cl)nn1-c1ncccc1Cl
- LC50 [2]: 0.03 µg/mL (≈ 0.0684 µM)
- LC50 [3]: 0.03 µg/mL (≈ 0.0684 µM)
- LC50 [4]: 0.07 µg/mL (≈ 0.16 µM)
- pEC50 [5]: 7.16

SMILES: CNC(=O)c1cc(Cl)cc(C)c1NC(=O)c1cc(OC)nn1-c1ncccc1Cl
- LC50 [2]: 0.68 µg/mL (≈ 1.57 µM)
- LC50 [3]: 0.33 µg/mL (≈ 0.76 µM)
- LC50 [4]: 2.43 µg/mL (≈ 5.6 µM)
- pEC50 [5]: 7.00

SMILES: Cc1cc(Br)cc(C(=O)NC(C)C)c1NC(=O)c1cc(C(F)(F)F)nn1-c1ncccc1Cl
- LC50 [2]: 0.03 µg/mL (≈ 0.0551 µM)
- LC50 [3]: 0.01 µg/mL (≈ 0.0184 µM)
- LC50 [4]: 0.03 µg/mL (≈ 0.0551 µM)
- pEC50 [5]: 5.80

SMILES: CNC(=O)c1cc(Br)cc(C)c1NC(=O)c1cc(Br)nn1-c1ncccc1Cl
- LC50 [2]: 0.18 µg/mL (≈ 0.341 µM)
- LC50 [3]: 0.06 µg/mL (≈ 0.114 µM)
- LC50 [4]: 0.11 µg/mL (≈ 0.208 µM)
- pEC50 [5]: 7.20

SMILES: Cc1cc(Cl)cc(C(=O)NC(C)C)c1NC(=O)c1cc(Br)nn1-c1ncccc1Cl
- LC50 [2]: 0.04 µg/mL (≈ 0.0782 µM)
- LC50 [3]: 0.04 µg/mL (≈ 0.0782 µM)
- LC50 [4]: 0.02 µg/mL (≈ 0.0391 µM)
- pEC50 [5]: 6.34

SMILES: Cc1cc(C(F)(F)F)cc(C(=O)NC(C)C)c1NC(=O)c1cc(C(F)(F)F)nn1-c1ncccc1Cl
- LC50 [2]: 0.39 µg/mL (≈ 0.731 µM)
- LC50 [3]: 0.07 µg/mL (≈ 0.131 µM)
- LC50 [4]: 0.11 µg/mL (≈ 0.206 µM)
- pEC50 [5]: 5.43

SMILES: Cc1cc(Cl)cc(C(=O)NC(C)C)c1NC(=O)c1cc(Cl)nn1-c1ncccc1Cl
- LC50 [2]: 0.05 µg/mL (≈ 0.107 µM)
- LC50 [3]: 0.09 µg/mL (≈ 0.193 µM)
- LC50 [4]: 0.05 µg/mL (≈ 0.107 µM)
- pEC50 [5]: 6.57

SMILES: CNC(=O)c1cc(I)cc(C)c1NC(=O)c1cc(Br)nn1-c1ncccc1Cl
- LC50 [2]: 0.13 µg/mL (≈ 0.226 µM)
- LC50 [3]: 0.07 µg/mL (≈ 0.122 µM)
- LC50 [4]: 0.16 µg/mL (≈ 0.278 µM)
- pEC50 [5]: 6.93

SMILES: CNC(=O)c1cc(Cl)cc(C)c1NC(=O)c1cc(Br)nn1-c1ncccc1Cl [CHLORANTRANILIPROLE]
- LC50 [2]: 0.02 µg/mL (≈ 0.0414 µM)
- LC50 [3]: 0.02 µg/mL (≈ 0.0414 µM)
- LC50 [4]: 0.04 µg/mL (≈ 0.0828 µM)
- pEC50 [5]: 7.28 and 7.30
- pEC50 [6]: 7.40
- pEC50 [7]: 4.85
- pEC50 [8]: < 4.00
- Activity [9]: 20%
- pEC50 [1]: < 4.00
- Activity [10]: inactive
- LD50 [11]: > 5000 mg/kg
- Activity [12]: Non-toxic
- Activity [13]: Non-toxic

SMILES: CNC(=O)c1cc(Cl)cc(C)c1NC(=O)c1cc(OC(F)F)nn1-c1ncccc1Cl
- LC50 [2]: 0.21 µg/mL (≈ 0.447 µM)
- LC50 [3]: 0.38 µg/mL (≈ 0.808 µM)
- LC50 [4]: 1.08 µg/mL (≈ 2.3 µM)
- pEC50 [5]: 7.22
